Reference: patent publication US20140135357A1, “DOSE REGIME FOR CAMPTOTHECIN DERIVATIVES” (Taiwan Liposome Company, Ltd., priority 2012, published 2014)

Assay: Phase I clinical trial: pharmacokinetic analysis of TLC388HCl diastereomers and metabolites after IV infusion
Details: for difference between PK profiles on Day 1 and Day 8: Cycle 1; for half-life: plasma, after IV administration of TLC388HCl composition
[1] = Day 1, dose group 1.5 mg/m^2 TLC388HCl, Mean (SD)
[2] = Day 1, dose group 3.0 mg/m^2 TLC388HCl, Mean (SD)
[3] = Day 1, dose group 6.0 mg/m^2 TLC388HCl, Mean (SD)
[4] = Day 1, dose group 9.0 mg/m^2 TLC388HCl, Mean (SD)
[5] = Day 1, dose group 20.0 mg/m^2 TLC388HCl, Mean (SD)
[6] = Day 1, dose group 30.0 mg/m^2 TLC388HCl, Mean (SD)
[7] = Day 1, dose group 35.0 mg/m^2 TLC388HCl, Mean (SD)
[8] = Day 1, dose group 40.0 mg/m^2 TLC388HCl, Mean (SD)
[9] = Day 1, dose group 50.0 mg/m^2 TLC388HCl, Mean (SD)
[10] = Day 1, dose group 60.0 mg/m^2 TLC388HCl, Mean (SD)
[11] = Day 8, dose group 1.5 mg/m^2 TLC388HCl, Mean (SD)
[12] = Day 8, dose group 3.0 mg/m^2 TLC388HCl, Mean (SD)
[13] = Day 8, dose group 6.0 mg/m^2 TLC388HCl, Mean (SD)
[14] = Day 8, dose group 9.0 mg/m^2 TLC388HCl, Mean (SD)
[15] = Day 8, dose group 20.0 mg/m^2 TLC388HCl, Mean (SD)
[16] = Day 8, dose group 30.0 mg/m^2 TLC388HCl, Mean (SD)
[17] = Day 8, dose group 35.0 mg/m^2 TLC388HCl, Mean (SD)
[18] = Day 8, dose group 40.0 mg/m^2 TLC388HCl, Mean (SD)
[19] = Day 8, dose group 50.0 mg/m^2 TLC388HCl, Mean (SD)
[20] = Day 8, dose group 60.0 mg/m^2 TLC388HCl, Mean (SD)
[21] = patients treated with 60 mg/m^2 of TLC388HCl (N = 6)

Method: A non-randomized phase I clinical trial was conducted at 4 institutions in the US and Taiwan.
Patients were included in this trial if they are over the age of 18, with advanced cancer and the ECOG performance status is 0 or 1. […] Patients were excluded from the study if they have previously received more than 3 regimens of chemotherapy, or if they have received chemotherapy or radiotherapy within 4 weeks of the trial recruitment.
Eligible patients were given the pharmaceutical composition of the present invention, comprising a mixture of TLC388HCl and mPEG2000-DSPE in a molar ratio of 1:0.7 to 1:0.9 (known as Lipotecan®). […] The pharmaceutical composition was administered as a 30-min IV infusion, on days 1, 8, and 15 of a 28-day cycle (i.e. 3 IV infusions per 28-day cycle).
Serum samples were collected from the patients for pharmacokinetic analysis on day 1, day 8 and day 15 of Cycles 1 and 2, at the following times:
Post IV infusion: (Day 1 and 8 of Cycle 1): 33 min; 40 min; 50 min; 1 h; 1 h 30 min; 2 h; 4 h and 8 h. Post IV infusion (Day 15 of Cycle 1 and Day 1, 8, and 15 of Cycle 2): 4 h. Patients were assessed every 8 weeks, after 2 cycles of treatments.
During the 2-cycle study period, the patients were examined regularly for the following outcomes: • Side effect/DLT; • The pK profiles of the (S,S) and (S,R) diastereomers of TLC388HCl, its 3 metabolites (TLC-U1, TLC-U2 and Topotecan) on day 1 and day 8 of the treatment cycle; and • Anti-cancer efficacy.

## CCC1(OC(=O)C(C)ON=C2c3cc([N+](=O)[O-])cc([N+](=O)[O-])c3-c3c2cc([N+](=O)[O-])cc3[N+](=O)[O-])C(=O)OCc2c1cc1n(c2=O)Cc2cc3c(CN(C)C)c(O)ccc3nc2-1.Cl (stereo not drawn) [S,R TLC388HCl]
  difference between PK profiles on Day 1 and Day 8: no significant difference
  half-life: a few minutes
[1]
  AUC0-t: 1.646 ng·h/mL
  Cmax: 3.188 ng/mL
  Tmax: 0.606 (0.106) hr
  t1/2: 2.603 (3.591) hr
[2]
  AUC0-t: 4.728 ng·h/mL
  Cmax: 2.743 ng/mL
  Tmax: 0.933 (0.936) hr
[3]
  AUC0-t: 1.564 ng·h/mL
  Cmax: 4.073 ng/mL
  Tmax: 0.467 (0.209) hr
[4]
  AUC0-t: 0.821 ng·h/mL
  Cmax: 2.196 ng/mL
  Tmax: 0.354 (0.209) hr
  t1/2: 0.197 (0.218) hr
[5]
  AUC0-t: 8.671 ng·h/mL
  Cmax: 29.303 ng/mL
  Tmax: 0.250 (0.000) hr
  t1/2: 2.828 (4.510) hr
[6]
  AUC0-t: 3.624 ng·h/mL
  Cmax: 12.930 ng/mL
  Tmax: 0.396 (0.292) hr
  t1/2: 0.258 (0.271) hr
[7]
  AUC0-t: 138.61 ng·h/mL
  Cmax: 263.58 ng/mL
  Tmax: 0.709 (0.083) hr
  t1/2: 3.030 (1.537) hr
[8]
  AUC0-t: 10.818 ng·h/mL
  Cmax: 28.259 ng/mL
  Tmax: 0.415 (0.152) hr
  t1/2: 0.460 (0.772) hr
[9]
  AUC0-t: 14.387 ng·h/mL
  Cmax: 43.180 ng/mL
  Tmax: 0.403 (0.143) hr
  t1/2: 0.483 (0.334) hr
[10]
  AUC0-t: 11.285 ng·h/mL
  Cmax: 63.194 ng/mL
  Tmax: 0.357 (0.148) hr
  t1/2: 0.639 (0.425) hr
[11]
  AUC0-t: 0.449 ng·h/mL
  Cmax: 0.916 ng/mL
  Tmax: 0.489 (0.215) hr
  t1/2: 0.087 h
[12]
  AUC0-t: 0.574 ng·h/mL
  Cmax: 1.811 ng/mL
  Tmax: 0.350 (0.173) hr
  t1/2: 0.050 (0.008) hr
[13]
  AUC0-t: 2.190 ng·h/mL
  Cmax: 8.287 ng/mL
  Tmax: 0.467 (0.209) hr
  t1/2: 0.072 h
[14]
  AUC0-t: 5.396 ng·h/mL
  Cmax: 3.325 ng/mL
  Tmax: 2.408 (3.729) hr
  t1/2: 0.133 (0.084) hr
[15]
  AUC0-t: 4.707 ng·h/mL
  Cmax: 15.753 ng/mL
  Tmax: 0.328 (0.135) hr
  t1/2: 0.115 (0.064) hr
[16]
  AUC0-t: 18.892 ng·h/mL
  Cmax: 38.413 ng/mL
  Tmax: 0.512 (0.240) hr
  t1/2: 0.202 (0.242) hr
[17]
  AUC0-t: 139.26 ng·h/mL
  Cmax: 403.60 ng/mL
  Tmax: 0.621 (0.141) hr
  t1/2: 3.329 (2.590) hr
[18]
  AUC0-t: 34.254 ng·h/mL
  Cmax: 76.660 ng/mL
  Tmax: 0.303 (0.113) hr
  t1/2: 0.411 (0.676) hr
[19]
  AUC0-t: 39.251 ng·h/mL
  Cmax: 97.288 ng/mL
  Tmax: 0.297 (0.104) hr
  t1/2: 0.764 (1.045) hr
[20]
  AUC0-t: 13.377 ng·h/mL
  Cmax: 47.340 ng/mL
  Tmax: 0.450 (0.115) hr
  t1/2: 1.416 (1.169) hr
[21]
  Dose-normalized AUClast: 0.82 ± 1.92 nM*h/(mg/m^2)
  Dose-normalized Cmax: 1.63 ± 3.77 nM/(mg/m^2)
  Tmax: 0.47 ± 0.30 h
  t1/2: 1.08 ± 1.77 h

## CCC1(OC(=O)C(C)ON=C2c3cc([N+](=O)[O-])cc([N+](=O)[O-])c3-c3c2cc([N+](=O)[O-])cc3[N+](=O)[O-])C(=O)OCc2c1cc1n(c2=O)Cc2cc3c(CN(C)C)c(O)ccc3nc2-1.Cl (stereo not drawn) [S,S TLC388HCl]
  difference between PK profiles on Day 1 and Day 8: no significant difference
  half-life: a few minutes
[1]
  AUC0-t: 2.190 ng·h/mL
  Cmax: 4.492 ng/mL
  Tmax: 0.606 (0.106) hr
  t1/2: 2.792 (3.856) hr
[2]
  AUC0-t: 6.136 ng·h/mL
  Cmax: 3.857 ng/mL
  Tmax: 0.933 (0.936) hr
[3]
  AUC0-t: 1.866 ng·h/mL
  Cmax: 5.763 ng/mL
  Tmax: 0.467 (0.209) hr
[4]
  AUC0-t: 1.141 ng·h/mL
  Cmax: 2.985 ng/mL
  Tmax: 0.429 (0.212) hr
  t1/2: 0.074 (0.033) hr
[5]
  AUC0-t: 14.699 ng·h/mL
  Cmax: 51.193 ng/mL
  Tmax: 0.250 (0.000) hr
  t1/2: 0.432 (0.260) hr
[6]
  AUC0-t: 5.227 ng·h/mL
  Cmax: 18.623 ng/mL
  Tmax: 0.454 (0.276) hr
  t1/2: 0.160 (0.034) hr
[7]
  AUC0-t: 212.19 ng·h/mL
  Cmax: 417.03 ng/mL
  Tmax: 0.679 (0.116) hr
  t1/2: 2.221 (0.789) hr
[8]
  AUC0-t: 17.287 ng·h/mL
  Cmax: 47.220 ng/mL
  Tmax: 0.415 (0.152) hr
  t1/2: 0.457 (0.812) hr
[9]
  AUC0-t: 23.967 ng·h/mL
  Cmax: 76.840 ng/mL
  Tmax: 0.403 (0.143) hr
  t1/2: 0.218 (0.075) hr
[10]
  AUC0-t: 18.196 ng·h/mL
  Cmax: 103.16 ng/mL
  Tmax: 0.357 (0.148) hr
  t1/2: 0.546 (0.353) hr
[11]
  AUC0-t: 0.608 ng·h/mL
  Cmax: 1.297 ng/mL
  Tmax: 0.489 (0.215) hr
  t1/2: 0.093 h
[12]
  AUC0-t: 0.852 ng·h/mL
  Cmax: 2.902 ng/mL
  Tmax: 0.350 (0.173) hr
[13]
  AUC0-t: 3.152 ng·h/mL
  Cmax: 12.160 ng/mL
  Tmax: 0.467 (0.209) hr
  t1/2: 0.045 h
[14]
  AUC0-t: 7.000 ng·h/mL
  Cmax: 4.776 ng/mL
  Tmax: 2.408 (3.729) hr
  t1/2: 0.195 h
[15]
  AUC0-t: 7.369 ng·h/mL
  Cmax: 24.533 ng/mL
  Tmax: 0.328 (0.135) hr
  t1/2: 0.509 (0.731) hr
[16]
  AUC0-t: 28.454 ng·h/mL
  Cmax: 58.903 ng/mL
  Tmax: 0.587 (0.167) hr
  t1/2: 0.114 (0.061) hr
[17]
  AUC0-t: 208.58 ng·h/mL
  Cmax: 616.50 ng/mL
  Tmax: 0.621 (0.141) hr
  t1/2: 4.009 (1.684) hr
[18]
  AUC0-t: 58.170 ng·h/mL
  Cmax: 127.39 ng/mL
  Tmax: 0.303 (0.113) hr
  t1/2: 0.429 (0.687) hr
[19]
  AUC0-t: 58.594 ng·h/mL
  Cmax: 150.12 ng/mL
  Tmax: 0.297 (0.104) hr
  t1/2: 0.817 (1.200) hr
[20]
  AUC0-t: 24.500 ng·h/mL
  Cmax: 87.780 ng/mL
  Tmax: 0.403 (0.143) hr
  t1/2: 0.971 (0.667) hr
At all dose levels
  Cmax and AUC compared with S,R-TLC388HCl: higher than those of S,R-TLC388HCl
[21]
  Dose-normalized AUClast: 1.22 ± 2.87 nM*h/(mg/m^2)
  Dose-normalized Cmax: 2.60 ± 6.02 nM/(mg/m^2)
  Tmax: 0.47 ± 0.3 h
  t1/2: 0.75 ± 1.18 h
